Results from patent EP0588622B1, “Bleach composition” (UNILEVER PLC, priority 1992, dated 1994).
Read-outs that look alike come from different tables or passages of the source. One block for each molecule: values may come before it.

Legend:
[1] = Dye damage in tergotometer wash at pH 9 (Example VII), diacetate; details: diacetate dyed with CI disperse 14; pH 9, 40°C, 30 minutes, peroxyacid 9.2x10^-4 mole/l
[2] = pKa determination by sodium hydroxide titration of peroxyacid solution
[3] = Dye damage in tergotometer wash at pH 9 (Example VII), nylon 6,6; details: nylon 6,6 dyed with CI disperse 14; pH 9, 40°C, 30 minutes, peroxyacid 9.2x10^-4 mole/l
[4] = Dye damage in tergotometer wash at pH 9 (Example VII), triacetate; details: triacetate dyed with CI disperse 14; pH 9, 40°C, 30 minutes, peroxyacid 9.2x10^-4 mole/l
[5] = peroxyacid solution 0.000525 moles/l plus EDTA, 22-24°C, 30 minutes
[6] = Stain bleaching, visual assessment of stained cloths after tergotometer wash (Example V); details: for Ranking: score 1 smallest, 4 greatest cleaning benefit, peroxyacid 9.2x10^-4 mol l^-1, 40°C, 30 minutes
[7] = physchem
[8] = Dye damage in tergotometer wash with detergent base at pH 6 to 10 (Example III); details: peroxyacid 9.2x10^-4 mole/l, detergent base 4 g/l, 40°C, 30 minutes
[9] = Tea stain bleaching, difference in reflectance at 460 nm before and after washing (Example VI); details: 40°C, 30 minutes
Procedure: The stain bleaching performance was measured by determining the difference ([…]) in %reflectance of cloths at 460 nm before and after washing. […] This was carried out in a tergotometer at 40°C, washing for 30 minutes. Cloths were washed in 450 ml 18°FH water with 1.8 g NSPA base powder and peroxyacid included at 9.2x10^-4 mol l^-1. Two series of experiments were carried out; one at pH 6 where the peracid is largely in its undissociated form and one above the peracid pKa, at pH 9. A stained piece of fabric measuring 8x8 cm was cut into four such that each quarter would be washed under one of each of the four experimental conditions. The method as in example V was used in determining the tea stain bleaching effect of sterically hindered hydrophobic peroxyacids, the differences being that 3 replicates were used, the reflectance was measured before and after washing, tests were done over a pH range of from 6 to 10 and 4 g/l NSPA base powder was used.

Compound: CC(CC(=O)OO)CC(C)(C)C (centres unmarked) [iso-pernonanoic, peroxy-3,5,5-trimethylhexanoic acid]
% dye damage [1]: 25%
pKa [2]: 8.1
% dye damage [3]: 11%
% dye damage [4]: 23%

Compound: O=C(OO)C1CC2CCC1C2 (stereo not drawn) [Norbornane-endo-2-Percarboxylic]
% dye damage [5]: 7.0%
pKa [2]: 8.15

Compound: CC1(C(=O)OO)CC2CCC1C2 (stereo not drawn) [2 methylnorbornane-endo-2-percaboxylic]
% dye damage [5]: 5.6%
pKa [2]: 8.2

Compound: O=C(OO)C1CC2CCC1C2 (centres unmarked) [NBC, Norbornane 2-peroxyacid]
Ranking ([6]; Washes at pH 9): 2
Ranking ([6]; Washes pH 6): 2

Compound: O=C(OO)C12CC3CC(CC(C3)C1)C2 [Peradamantoic, Peradamantoic acid]
Ranking ([6]; Washes at pH 9): 4
Ranking ([6]; Washes pH 6): 4
removal of the stain ([6]; black biro stain, both at pH 6 and 9): almost complete removal of the stain
TEA STAIN BLEACHING ΔR460NM ([9]; pH 6, 4 g/l NSPA base powder): 13.2
TEA STAIN BLEACHING ΔR460NM ([9]; pH 7, 4 g/l NSPA base powder): 16.9
TEA STAIN BLEACHING ΔR460NM ([9]; pH 8, 4 g/l NSPA base powder): 17.3
TEA STAIN BLEACHING ΔR460NM ([9]; pH 9, 4 g/l NSPA base powder): 13.1
TEA STAIN BLEACHING ΔR460NM ([9]; pH 10, 4 g/l NSPA base powder): 3.6
% dye damage [5]: 11.2%
pKa [2]: 7.95

Compound: CC1C2CCC(C2)C1C(=O)OO (stereo not drawn) [Trans-3-Methyl norbornane-endo-2-percaboxylic]
% dye damage [5]: 8.2%
pKa [2]: 8.15

Continued, in another order:

pKa [2]: 8
Compound: CCCCc1ccc(C(=O)OO)cc1 [p-bu^n perbenzoic, reference compound]
% dye damage [5]: 39.6%

pKa [7]: 7.98
Compound: CC(C)(C)c1ccc(C(=O)OO)cc1 [p-bu^t perbenzoic, p-t-butylperbenzoic acid]
% dye damage [5]: 19.6%

pKa [2]: 8.1
Compound: CCCCCCCCC(=O)OO [n-pernonanoic, n-pernonanoic acid]
% dye damage [1]: 82%
% dye damage [3]: 52%
% DYE DAMAGE ([8]; pH 6): 70.4%
% DYE DAMAGE ([8]; pH 7): 67.9%
% DYE DAMAGE ([8]; pH 8): 63.7%
% DYE DAMAGE ([8]; pH 9): 37.2%
% DYE DAMAGE ([8]; pH 10): 15.0%
% dye damage [4]: 85%
